Measurements from patent US11331369B2, “Endoparasitic depsipeptides” (Zoetis Services LLC, priority 2017, dated 2022).

Legend:
Format in all cases: cell-based
[1] = system: 4th stage larvae (L4) of Dirofilaria immitis; test: Dirofilaria immitis, L4 Stage (DiL4) In Vitro Assay; settings: Dirofilaria immitis, 72 h, read-out: DiL4 Minimum Effective Dose (MED), approximately 72 hours incubation; L4 larvae assessed for survival or paralysis
[2] = system: third stage larvae of Haemonchus contortus; test: Haemonchus contortus L3 (HcL3) Assay; settings: 96 h, read-out: HcL3 Minimum Effective Dose (MED)
[3] = system: microfilariae of Dirofilaria immitis; test: Dirofilaria immitis, Microfilaria (DiMF) In vitro Assay; settings: 72 h, read-out: DiMF Minimum Effective Dose (MED), approximately 72 hours incubation, microfilariae assessed for survival or paralysis

CC(C)C[C@H]1C(=O)O[C@H](Cc2ccc(Cn3cc(Cl)cn3)cc2)C(=O)N(C)[C@@H](CC(C)C)C(=O)O[C@H](C)C(=O)N(C)[C@@H](CC(C)C)C(=O)O[C@H](Cc2ccc(Cn3cc(Cl)cn3)cc2)C(=O)N(C)[C@@H](CC(C)C)C(=O)O[C@H](C)C(=O)N1C [Example 1b-35, (3S,6R,9S,12R,15S,18R,21S,24R)-6,18-bis(4-((4-chloro-1H-pyrazol-1-yl)methyl)benzyl)-3,9,15,21-tetraisobutyl-4,10,12,16,22,24-hexamethyl-1,7,13,19-tetraoxa-4,10,16,22-tetraazacyclotetracosan-2,5,8,11,14,17,20,23-octaone]
minimal effective concentration [1]: 0.0001 to 0.001 µM | minimal effective concentration [2]: 10 to 100 µM | minimal effective concentration [3]: 0.001 to 0.01 µM

CC(C)C[C@H]1C(=O)O[C@H](Cc2ccc(Cn3cc(I)cn3)cc2)C(=O)N(C)[C@@H](CC(C)C)C(=O)O[C@H](C)C(=O)N(C)[C@@H](CC(C)C)C(=O)O[C@H](Cc2ccc(Cn3cc(I)cn3)cc2)C(=O)N(C)[C@@H](CC(C)C)C(=O)O[C@H](C)C(=O)N1C [Example 1b-46, (3S,6R,9S,12R,15S,18R,21S,24R)-6,18-bis(4-((4-iodo-1H-pyrazol-1-yl)methyl)benzyl)-3,9,15,21-tetraisobutyl-4,10,12,16,22,24-hexamethyl-1,7,13,19-tetraoxa-4,10,16,22-tetraazacyclotetracosan-2,5,8,11,14,17,20,23-octaone]
minimal effective concentration [1]: 0.0001 to 0.001 µM | minimal effective concentration [2]: 1 to 10 µM | minimal effective concentration [3]: 0.001 to 0.01 µM

CC(C)C[C@H]1C(=O)O[C@H](Cc2ccc(Cn3nc(C(F)F)cc3C(F)F)cc2)C(=O)N(C)[C@@H](CC(C)C)C(=O)O[C@H](C)C(=O)N(C)[C@@H](CC(C)C)C(=O)O[C@H](Cc2ccc(Cn3nc(C(F)F)cc3C(F)F)cc2)C(=O)N(C)[C@@H](CC(C)C)C(=O)O[C@H](C)C(=O)N1C [Example 1b-89, (3S,6R,9S,12R,15S,18R,21S,24R)-6,18-bis(4-((3,5-bis(difluoromethyl)-1H-pyrazol-1-yl)methyl)benzyl)-3,9,15,21-tetraisobutyl-4,10,12,16,22,24-hexamethyl-1,7,13,19-tetraoxa-4,10,16,22-tetraazacyclotetracosan-2,5,8,11,14,17,20,23-octaone]
minimal effective concentration [1]: ≤ 0.0001 µM | minimal effective concentration [2]: ≤ 1 µM | minimal effective concentration [3]: 0.001 to 0.01 µM

CC#Cc1cnn(Cc2ccc(C[C@H]3OC(=O)[C@H](CC(C)C)N(C)C(=O)[C@@H](C)OC(=O)[C@H](CC(C)C)N(C)C(=O)[C@@H](Cc4ccc(Cn5cc(C#CC)cn5)cc4)OC(=O)[C@H](CC(C)C)N(C)C(=O)[C@@H](C)OC(=O)[C@H](CC(C)C)N(C)C3=O)cc2)c1 [Example 1b-118, (3S,6R,9S,12R,15S,18R,21S,24R)-3,9,15,21-tetraisobutyl-4,6,10,16,18,22-hexamethyl-12,24-bis(4-((4-(prop-1-yn-1-yl)-1H-pyrazol-1-yl)methyl)benzyl)-1,7,13,19-tetraoxa-4,10,16,22-tetraazacyclotetracosan-2,5,8,11,14,17,20,23-octaone]
minimal effective concentration [1]: 0.0001 to 0.001 µM | minimal effective concentration [2]: 1 to 10 µM | minimal effective concentration [3]: 0.001 to 0.01 µM

CCC#Cc1cnn(Cc2ccc(C[C@H]3OC(=O)[C@H](CC(C)C)N(C)C(=O)[C@@H](C)OC(=O)[C@H](CC(C)C)N(C)C(=O)[C@@H](Cc4ccc(Cn5cc(C#CCC)cn5)cc4)OC(=O)[C@H](CC(C)C)N(C)C(=O)[C@@H](C)OC(=O)[C@H](CC(C)C)N(C)C3=O)cc2)c1 [Example 1b-119, (3S,6R,9S,12R,15S,18R,21S,24R)-6,18-bis(4-((4-(but-1-yn-1-yl)-1H-pyrazol-1-yl)methyl)benzyl)-3,9,15,21-tetraisobutyl-4,10,12,16,22,24-hexamethyl-1,7,13,19-tetraoxa-4,10,16,22-tetraazacyclotetracosan-2,5,8,11,14,17,20,23-octaone]
minimal effective concentration [1]: ≤ 0.0001 µM | minimal effective concentration [2]: 10 to 100 µM | minimal effective concentration [3]: 0.001 to 0.01 µM

CC(C)C[C@H]1C(=O)O[C@H](Cc2ccc(Cn3nccc3C(C)C)cc2)C(=O)N(C)[C@@H](CC(C)C)C(=O)O[C@H](C)C(=O)N(C)[C@@H](CC(C)C)C(=O)O[C@H](Cc2ccc(Cn3nccc3C(C)C)cc2)C(=O)N(C)[C@@H](CC(C)C)C(=O)O[C@H](C)C(=O)N1C [Example 1b-126, (3S,6R,9S,12R,15S,18R,21S,24R)-3,9,15,21-tetraisobutyl-6,18-bis(4-((5-isopropyl-1H-pyrazol-1-yl)methyl)benzyl)-4,10,12,16,22,24-hexamethyl-1,7,13,19-tetraoxa-4,10,16,22-tetraazacyclotetracosan-2,5,8,11,14,17,20,23-octaone]
minimal effective concentration [1]: 0.0001 to 0.001 µM | minimal effective concentration [2]: 1 to 10 µM | minimal effective concentration [3]: 0.001 to 0.01 µM

CC(C)C[C@H]1C(=O)O[C@H](Cc2ccc(Cn3nccc3C(C)(C)C)cc2)C(=O)N(C)[C@@H](CC(C)C)C(=O)O[C@H](C)C(=O)N(C)[C@@H](CC(C)C)C(=O)O[C@H](Cc2ccc(Cn3nccc3C(C)(C)C)cc2)C(=O)N(C)[C@@H](CC(C)C)C(=O)O[C@H](C)C(=O)N1C [Example 1b-127, (3S,6R,9S,12R,15S,18R,21S,24R)-6,18-bis(4-((5-(tert-butyl)-1H-pyrazol-1-yl)methyl)benzyl)-3,9,15,21-tetraisobutyl-4,10,12,16,22,24-hexamethyl-1,7,13,19-tetraoxa-4,10,16,22-tetraazacyclotetracosan-2,5,8,11,14,17,20,23-octaone]
minimal effective concentration [1]: 0.001 to 0.01 µM | minimal effective concentration [2]: 1 to 10 µM | minimal effective concentration [3]: 0.01 to 0.1 µM

CC(C)C[C@H]1C(=O)O[C@H](Cc2ccc(Cn3nccc3C3CCC3)cc2)C(=O)N(C)[C@@H](CC(C)C)C(=O)O[C@H](C)C(=O)N(C)[C@@H](CC(C)C)C(=O)O[C@H](Cc2ccc(Cn3nccc3C3CCC3)cc2)C(=O)N(C)[C@@H](CC(C)C)C(=O)O[C@H](C)C(=O)N1C [Example 1b-129, (3S,6R,9S,12R,15S,18R,21S,24R)-6,18-bis(4-((5-cyclobutyl-1H-pyrazol-1-yl)methyl)benzyl)-3,9,15,21-tetraisobutyl-4,10,12,16,22,24-hexamethyl-1,7,13,19-tetraoxa-4,10,16,22-tetraazacyclotetracosan-2,5,8,11,14,17,20,23-octaone]
minimal effective concentration [1]: 0.0001 to 0.001 µM | minimal effective concentration [2]: 1 to 10 µM | minimal effective concentration [3]: 0.01 to 0.1 µM

CC(C)C[C@H]1C(=O)O[C@H](Cc2ccc(Cn3ccc(N)n3)cc2)C(=O)N(C)[C@@H](CC(C)C)C(=O)O[C@H](C)C(=O)N(C)[C@@H](CC(C)C)C(=O)O[C@H](Cc2ccc(Cn3ccc(N)n3)cc2)C(=O)N(C)[C@@H](CC(C)C)C(=O)O[C@H](C)C(=O)N1C [Example 1b-143, (3S,6R,9S,12R,15S,18R,21S,24R)-6,18-bis(4-((3-amino-1H-pyrazol-1-yl)methyl)benzyl)-3,9,15,21-tetraisobutyl-4,10,12,16,22,24-hexamethyl-1,7,13,19-tetraoxa-4,10,16,22-tetraazacyclotetracosan-2,5,8,11,14,17,20,23-octaone]
minimal effective concentration [1]: 0.001 to 0.01 µM | minimal effective concentration [2]: 1 to 10 µM | minimal effective concentration [3]: 0.001 to 0.01 µM

CC(C)C[C@H]1C(=O)O[C@H](Cc2ccc(Cn3ccc(OC(C)C)n3)cc2)C(=O)N(C)[C@@H](CC(C)C)C(=O)O[C@H](C)C(=O)N(C)[C@@H](CC(C)C)C(=O)O[C@H](Cc2ccc(Cn3ccc(OC(C)C)n3)cc2)C(=O)N(C)[C@@H](CC(C)C)C(=O)O[C@H](C)C(=O)N1C [Example 1b-151, (3S,6R,9S,12R,15S,18R,21S,24R)-3,9,15,21-tetraisobutyl-6,18-bis(4-((3-isopropoxy-1H-pyrazol-1-yl)methyl)benzyl)-4,10,12,16,22,24-hexamethyl-1,7,13,19-tetraoxa-4,10,16,22-tetraazacyclotetracosan-2,5,8,11,14,17,20,23-octaone]
minimal effective concentration [1]: 0.0001 to 0.001 µM | minimal effective concentration [2]: ≤ 1 µM | minimal effective concentration [3]: 0.001 to 0.01 µM

CCc1ccnn1Cc1ccc(C[C@H]2OC(=O)[C@H](CC(C)C)N(C)C(=O)[C@@H](C)OC(=O)[C@H](CC(C)C)N(C)C(=O)[C@@H](Cc3ccc(Cn4nccc4CC)cc3)OC(=O)[C@H](CC(C)C)N(C)C(=O)[C@@H](C)OC(=O)[C@H](CC(C)C)N(C)C2=O)cc1 [Example 1b-165, (3S,6R,9S,12R,15S,18R,21S,24R)-6,18-bis(4-((5-ethyl-1H-pyrazol-1-yl)methyl)benzyl)-3,9,15,21-tetraisobutyl-4,10,12,16,22,24-hexamethyl-1,7,13,19-tetraoxa-4,10,16,22-tetraazacyclotetracosan-2,5,8,11,14,17,20,23-octaone]
minimal effective concentration [1]: 0.0001 to 0.001 µM | minimal effective concentration [2]: ≤ 1 µM | minimal effective concentration [3]: 0.001 to 0.01 µM

CCc1cc(C)n(Cc2ccc(C[C@H]3OC(=O)[C@H](CC(C)C)N(C)C(=O)[C@@H](C)OC(=O)[C@H](CC(C)C)N(C)C(=O)[C@@H](Cc4ccc(Cn5nc(C)cc5CC)cc4)OC(=O)[C@H](CC(C)C)N(C)C(=O)[C@@H](C)OC(=O)[C@H](CC(C)C)N(C)C3=O)cc2)n1 [Example 1b-186, (3S,6R,9S,12R,15S,18R,21S,24R)-6-(4-((5-ethyl-3-methyl-1H-pyrazol-1-yl)methyl)benzyl)-18-(4-((3-ethyl-5-methyl-1H-pyrazol-1-yl)methyl)benzyl)-3,9,15,21-tetraisobutyl-4,10,12,16,22,24-hexamethyl-1,7,13,19-tetraoxa-4,10,16,22-tetraazacyclotetracosan-2,5,8,11,14,17,20,23-octaone]
minimal effective concentration [1]: 0.0001 to 0.001 µM | minimal effective concentration [2]: 1 to 10 µM | minimal effective concentration [3]: 0.01 to 0.1 µM

CCc1cc(C)nn1Cc1ccc(C[C@H]2OC(=O)[C@H](CC(C)C)N(C)C(=O)[C@@H](C)OC(=O)[C@H](CC(C)C)N(C)C(=O)[C@@H](Cc3ccc(Cn4nc(C)cc4CC)cc3)OC(=O)[C@H](CC(C)C)N(C)C(=O)[C@@H](C)OC(=O)[C@H](CC(C)C)N(C)C2=O)cc1 [Example 1b-187, (3S,6R,9S,12R,15S,18R,21S,24R)-6,18-bis(4-((5-ethyl-3-methyl-1H-pyrazol-1-yl)methyl)benzyl)-3,9,15,21-tetraisobutyl-4,10,12,16,22,24-hexamethyl-1,7,13,19-tetraoxa-4,10,16,22-tetraazacyclotetracosan-2,5,8,11,14,17,20,23-octaone]
minimal effective concentration [1]: 0.001 to 0.01 µM | minimal effective concentration [2]: 1 to 10 µM | minimal effective concentration [3]: 0.01 to 0.1 µM
